Reference: patent US12172995B2, “Substituted indole and indazole compounds” (BRISTOL-MYERS SQUIBB COMPANY, priority 2018, dated 2024)

How the values were obtained:
Type in all cases: cell-based
human TLR7 = target: T1, human TLR7 (Homo sapiens, UniProt Q9NYK1); assay: TLR7 inhibition reporter assay (HEK-Blue SEAP); details: HEK-Blue cells overexpressing human TLR7, stimulated with gardiquimod 7.5 μM, 22 hour incubation
T1 construct: host or cells: HEK-Blue cells
T1 sequence (Q9NYK1 27-1049): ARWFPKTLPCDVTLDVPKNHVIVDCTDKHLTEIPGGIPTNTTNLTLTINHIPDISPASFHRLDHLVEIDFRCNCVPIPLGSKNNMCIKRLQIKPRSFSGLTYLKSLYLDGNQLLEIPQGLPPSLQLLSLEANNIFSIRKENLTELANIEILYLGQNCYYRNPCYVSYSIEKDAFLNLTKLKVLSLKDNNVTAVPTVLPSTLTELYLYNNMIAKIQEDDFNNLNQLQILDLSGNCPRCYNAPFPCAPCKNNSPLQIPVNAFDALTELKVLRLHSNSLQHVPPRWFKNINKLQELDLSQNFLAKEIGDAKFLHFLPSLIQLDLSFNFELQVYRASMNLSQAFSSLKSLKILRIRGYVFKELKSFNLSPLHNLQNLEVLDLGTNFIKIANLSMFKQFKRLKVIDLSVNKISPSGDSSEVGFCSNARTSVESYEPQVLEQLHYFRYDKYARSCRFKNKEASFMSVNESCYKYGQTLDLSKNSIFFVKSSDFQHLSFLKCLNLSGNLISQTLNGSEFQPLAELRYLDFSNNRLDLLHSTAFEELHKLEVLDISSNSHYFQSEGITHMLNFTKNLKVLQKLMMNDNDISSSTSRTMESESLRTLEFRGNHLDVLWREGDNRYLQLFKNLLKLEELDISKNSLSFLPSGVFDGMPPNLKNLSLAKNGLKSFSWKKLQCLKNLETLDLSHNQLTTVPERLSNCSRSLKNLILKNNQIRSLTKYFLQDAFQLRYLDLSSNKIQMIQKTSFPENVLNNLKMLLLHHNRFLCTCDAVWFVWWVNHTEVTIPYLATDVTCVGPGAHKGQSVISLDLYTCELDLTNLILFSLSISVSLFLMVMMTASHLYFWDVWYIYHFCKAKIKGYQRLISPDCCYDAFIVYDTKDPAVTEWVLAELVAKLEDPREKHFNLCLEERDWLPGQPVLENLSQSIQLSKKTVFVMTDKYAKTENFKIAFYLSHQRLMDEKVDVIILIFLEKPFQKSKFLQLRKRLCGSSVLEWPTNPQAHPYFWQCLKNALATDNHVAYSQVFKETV
Summary of the method: (§1)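 Reporter HEK-Blue lines; cpd 0.05 nM–50 μM, 30 min preincubation RT; agonist: TLR7 gardiquimod 7.5 μM, TLR8 R848 15.9 μM, TLR9 ODN2006 5 nM; 22 h 37 °C; SEAP detected colorimetrically; % inhib vs known inhibitor.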

human TLR8 = target: T2, human TLR8 (Homo sapiens, UniProt Q9NR97); assay: TLR8 inhibition reporter assay (HEK-Blue SEAP); details: HEK-Blue cells overexpressing human TLR8, stimulated with R848 15.9 μM, 22 hour incubation
T2 construct: host or cells: HEK-Blue cells
T2 sequence (Q9NR97 27-1041): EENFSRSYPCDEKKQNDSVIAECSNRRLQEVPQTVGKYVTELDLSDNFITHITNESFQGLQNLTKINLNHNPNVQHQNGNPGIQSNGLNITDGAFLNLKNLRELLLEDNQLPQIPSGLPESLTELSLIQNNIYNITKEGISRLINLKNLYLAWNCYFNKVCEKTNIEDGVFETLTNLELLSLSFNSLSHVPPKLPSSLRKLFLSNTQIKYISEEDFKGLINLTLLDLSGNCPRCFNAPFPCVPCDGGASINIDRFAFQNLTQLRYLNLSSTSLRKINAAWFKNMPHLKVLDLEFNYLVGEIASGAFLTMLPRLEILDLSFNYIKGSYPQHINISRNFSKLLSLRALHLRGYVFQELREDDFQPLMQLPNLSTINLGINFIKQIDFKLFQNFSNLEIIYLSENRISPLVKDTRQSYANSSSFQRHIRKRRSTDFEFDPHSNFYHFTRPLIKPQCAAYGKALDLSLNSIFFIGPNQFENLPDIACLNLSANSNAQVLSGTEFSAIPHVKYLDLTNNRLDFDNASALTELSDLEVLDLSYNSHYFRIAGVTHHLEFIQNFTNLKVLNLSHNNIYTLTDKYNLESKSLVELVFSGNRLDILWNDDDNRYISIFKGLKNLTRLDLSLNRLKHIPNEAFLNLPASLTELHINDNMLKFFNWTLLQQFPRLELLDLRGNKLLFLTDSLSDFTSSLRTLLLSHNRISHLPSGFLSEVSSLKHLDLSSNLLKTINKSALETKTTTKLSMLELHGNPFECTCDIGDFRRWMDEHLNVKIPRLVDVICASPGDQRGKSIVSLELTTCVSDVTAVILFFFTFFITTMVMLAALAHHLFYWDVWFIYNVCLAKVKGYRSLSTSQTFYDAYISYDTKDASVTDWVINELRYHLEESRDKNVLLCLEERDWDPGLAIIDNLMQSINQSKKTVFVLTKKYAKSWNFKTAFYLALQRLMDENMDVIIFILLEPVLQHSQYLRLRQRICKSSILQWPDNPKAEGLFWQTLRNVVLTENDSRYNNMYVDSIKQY
Summary of the method: as §1

human TLR9 = target: T3, human TLR9 (Homo sapiens, UniProt Q9NR96); assay: TLR9 inhibition reporter assay (HEK-Blue SEAP); details: HEK-Blue cells overexpressing human TLR9, stimulated with ODN2006 5 nM, 22 hour incubation
T3 construct: host or cells: HEK-Blue cells
T3 sequence (Q9NR96 26-1032): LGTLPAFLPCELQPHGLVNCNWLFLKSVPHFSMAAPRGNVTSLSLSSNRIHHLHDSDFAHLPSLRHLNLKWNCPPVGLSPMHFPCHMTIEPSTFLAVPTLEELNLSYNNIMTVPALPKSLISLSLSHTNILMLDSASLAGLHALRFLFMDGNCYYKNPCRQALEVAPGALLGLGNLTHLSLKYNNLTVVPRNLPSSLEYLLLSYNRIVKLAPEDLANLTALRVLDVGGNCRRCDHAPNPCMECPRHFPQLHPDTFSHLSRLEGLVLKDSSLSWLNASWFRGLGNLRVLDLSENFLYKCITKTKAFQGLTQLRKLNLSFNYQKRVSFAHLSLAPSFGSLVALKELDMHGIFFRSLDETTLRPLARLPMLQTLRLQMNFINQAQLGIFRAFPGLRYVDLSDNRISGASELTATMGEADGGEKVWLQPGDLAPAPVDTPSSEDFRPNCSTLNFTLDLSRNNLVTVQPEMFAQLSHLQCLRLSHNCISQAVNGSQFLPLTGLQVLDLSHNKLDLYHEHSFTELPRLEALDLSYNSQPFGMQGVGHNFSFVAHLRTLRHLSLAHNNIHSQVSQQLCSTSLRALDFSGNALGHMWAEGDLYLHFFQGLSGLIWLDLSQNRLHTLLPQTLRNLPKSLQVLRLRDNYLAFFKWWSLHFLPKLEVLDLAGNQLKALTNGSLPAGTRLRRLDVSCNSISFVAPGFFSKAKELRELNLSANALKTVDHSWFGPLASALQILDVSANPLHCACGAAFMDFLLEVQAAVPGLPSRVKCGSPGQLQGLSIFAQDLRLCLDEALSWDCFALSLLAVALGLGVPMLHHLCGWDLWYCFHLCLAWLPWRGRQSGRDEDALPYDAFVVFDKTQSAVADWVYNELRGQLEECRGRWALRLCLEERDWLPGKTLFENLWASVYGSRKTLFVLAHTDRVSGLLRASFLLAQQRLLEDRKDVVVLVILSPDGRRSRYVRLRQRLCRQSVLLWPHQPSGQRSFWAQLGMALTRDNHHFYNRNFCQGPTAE
Summary of the method: as §1

| SMILES | IC50 (human TLR7) | IC50 (human TLR8) | IC50 (human TLR9) |
| --- | --- | --- | --- |
| Cc1cc(-c2cc3[nH]nc(C4CCC(N5CC(C)(O)C5)CC4)c3cc2C(C)C)cn2ncnc12 (stereo not drawn) [Example 153, 1-(4-(5-isopropyl-6-(8-methyl-[1,2,4]triazolo[1,5-a]pyridin-6-yl)-1H-indazol-3-yl)cyclohexyl)-3-methylazetidin-3-01] | 1.1 nM | 0.6 nM | 7450 nM |
| Cc1cc(-c2cc3[nH]nc(C4CCC(N5CC6(CCO6)C5)CC4)c3cc2C(C)C)cn2ncnc12 (stereo not drawn) [Example 155, 6-(4-(5-isopropyl-6-(8-methyl-[1,2,4]triazolo[1,5-a]pyridin-6-yl)-1H-indazol-3-yl)cyclohexyl)-1-oxa-6-azaspiro[3.3]heptane] | 1.8 nM | 0.2 nM | 7560 nM |
| Cc1cc(-c2cc3[nH]nc(C4CCC(N5CC6(CCOC6)C5)CC4)c3cc2C(C)C)cn2ncnc12 (stereo not drawn) [Example 157, 2-(4-(5-isopropyl-6-(8-methyl-[1,2,4]triazolo[1,5-a]pyridin-6-yl)-1H-indazol-3-yl)cyclohexyl)-6-oxa-2-azaspiro[3.4]octane] | 0.5 nM | 0.4 nM | 6730 nM |
| Cc1cc(-c2cc3[nH]nc(C4CCC(N5CC6(CCOC6)C5)CC4)c3cc2C(C)C)cn2ncnc12 (stereo not drawn) [Example 158, 2-(4-(5-isopropyl-6-(8-methyl-[1,2,4]triazolo[1,5-a]pyridin-6-yl)-1H-indazol-3-yl)cyclohexyl)-6-oxa-2-azaspiro[3.4]octane] | 0.5 nM | 0.2 nM | 9850 nM |
| Cc1cc(-c2cc3[nH]nc(C4CCC(N5CCC(F)C5)CC4)c3cc2C(C)C)cn2ncnc12 (stereo not drawn) [Example 163, 6-(3-(4-(3-fluoropyrrolidin-1-yl)cyclohexyl)-5-isopropyl-1H-indazol-6-yl)-8-methyl-[1,2,4] triazolo[1,5-a]pyridine] | 0.9 nM | 0.1 nM | 6230 nM |
| Cc1cc2c(OC3CCNCC3)n[nH]c2cc1-c1cc(C)c2ncnn2c1 [Example 167, 8-methyl-6-(5-methyl-3-(piperidin-4-yloxy)-1H-indazol-6-yl)-[1,2,4]triazolo[1,5-a]pyridine] | 5.4 nM | 0.2 nM | 631 nM |
| Cc1cc(-c2cc(C)c3ncnn3c2)cc2[nH]nc(OCCN(C)C)c12 [Example 173, N,N-dimethyl-2-((4-methyl-6-(8-methyl-[1,2,4]triazolo[1,5-a]pyridin-6-yl)-1H-indazol-3-yl)oxy)ethan-1-amine] | 18.9 nM | 8 nM | 1850 nM |

More lines, now with the values ahead:

| IC50 (human TLR7) | IC50 (human TLR8) | IC50 (human TLR9) | SMILES |
| --- | --- | --- | --- |
| 1.3 nM | 0.3 nM | 13000 nM | Cc1cc(-c2cc3[nH]nc(C4CCC(N5CC(F)C5)CC4)c3cc2C(C)C)cn2ncnc12 (stereo not drawn) [Example 152, 6-(3-(4-(3-fluoroazetidin-1-yl)cyclohexyl)-5-isopropyl-1H-indazol-6-yl)-8-methyl-[1,2,4]triazolo[1,5-a]pyridine] |
| 0.5 nM | 0.2 nM | 15900 nM | Cc1cc(-c2cc3[nH]nc(C4CCC(N5CC(C)(O)C5)CC4)c3cc2C(C)C)cn2ncnc12 (stereo not drawn) [Example 154, 1-(4-(5-isopropyl-6-(8-methyl-[1,2,4]triazolo[1,5-a]pyridin-6-yl)-1H-indazol-3-yl)cyclohexyl)-3-methylazetidin-3-01] |
| 0.8 nM | 0.1 nM | 6110 nM | Cc1cc(-c2cc3[nH]nc(C4CCC(N5CC6(CCO6)C5)CC4)c3cc2C(C)C)cn2ncnc12 (stereo not drawn) [Example 156, 6-(4-(5-isopropyl-6-(8-methyl-[1,2,4]triazolo[1,5-a]pyridin-6-yl)-1H-indazol-3-yl)cyclohexyl)-1-oxa-6-azaspiro[3.3]heptane] |
| 1.5 nM | 0.1 nM | 6450 nM | Cc1cc(-c2cc3[nH]nc(C4CCC(N5CCC(F)C5)CC4)c3cc2C(C)C)cn2ncnc12 (stereo not drawn) [Example 164, 6-(3-(4-(3-fluoropyrrolidin-1-yl)cyclohexyl)-5-isopropyl-1H-indazol-6-yl)-8-methyl-[1,2,4] triazolo[1,5-a]pyridine] |
| 13.3 nM | 3 nM | 5730 nM | Cc1cc2c(OC3CCN(C(=O)CN(C)C)CC3)n[nH]c2cc1-c1cc(C)c2ncnn2c1 [Example 170, 2-(dimethylamino)-1-(4-((5-methyl-6-(8-methyl-[1,2,4]triazolo[1,5-a]pyridin-6-yl)-1H-indazol-3-yl)oxy)piperidin-1-yl)ethan-1-one] |
| 8.2 nM | 0.1 nM | 2770 nM | Cc1cc2c(OC3CCN(C)CC3)n[nH]c2cc1-c1cc(C)c2ncnn2c1 [Example 171, 8-methyl-6-(5-methyl-3-((1-methylpiperidin-4-yl)oxy)-1H-indazol-6-yl)-[1,2,4]triazolo[1,5-a] pyridine] |
| 37.2 nM | 1.4 nM | 5070 nM | Cc1cc2c(OCCN(C)C)n[nH]c2cc1-c1cc(C)c2ncnn2c1 [Example 172, N,N-dimethyl-2-((5-methyl-6-(8-methyl-[1,2,4]triazolo[1,5-a]pyridin-6-yl)-1H-indazol-3-yl)oxy)ethan-1-amine] |
